What all share (test): DTP human tumour cell line panel, 48 h
The test system of experiment [1] is A498 renal.
Experiment [2] has as its system COLO 205 colon.
Experiment [3] has as its system HL-60(TB) leukemia.
Experiment [4] deals with IGROV1 ovarian.
For experiment [5], the system named is MOLT-4 leukemia.
For experiment [6], the system named is NCI/ADR-RES ovarian.
The test system of experiment [7] is RPMI-8226 leukemia.
Experiment [8] relates to SF-268 CNS.
Experiment [9] relates to TK-10 renal.
Experiment [10] deals with RXF 393 renal.

This is an account of results in PubChem BioAssay (NCI).

Molecules are shown by their SMILES.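 Protocol summary: plate cells (96-well), add compound at 5 concentrations, incubate 48 h, interpolate endpoints linearly. The concentration for 50% growth inhibition is given as GI50. TGI: concentration producing complete growth inhibition.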

In general, TGI refers to the concentration giving total growth inhibition. With `CCOC(=O)c1nc2ccccc2nc1Nc1ccc(C(=O)OC)s1`, the TGI in experiment [1], in [2], in experiment [3], in experiment [4], in experiment [5] and in experiment [6] was above 100 µM each time. For the same molecule, the total growth inhibition concentration (TGI) in experiment [7], in [8] and in experiment [9] was above 100 µM throughout.

`COc1cc2nc(-c3cccs3)nc(Nc3ccccc3C(=O)NN)c2cc1OC`: the concentration for total growth inhibition (TGI) in experiment [1], in experiment [2], in experiment [3], in experiment [4], in experiment [5] and in [6] was above 100 µM each time. The TGI in [7], in experiment [8] and in experiment [9] was above 100 µM each time.

For the molecule `Cc1cc(C)[n+]2c(c1)C=CC2`, the concentration for total growth inhibition (TGI) is 68.2 µM in [2]; 26.3 µM in experiment [3]; 25.1 µM in experiment [10]; above 100 µM in [8]; above 100 µM in experiment [9].

Take `Clc1ccc(C2SCc3nc4ccccc4n32)cc1` (centres undefined): the concentration for total growth inhibition (TGI) in experiment [1] stood at 55.5 µM; in experiment [2] it was 36.8 µM; in experiment [3], 22.6 µM; in [4], 55.9 µM; in [5] it was 56.1 µM; in [7] it was 44.1 µM. The figures for the TGI in [8] and in [9] were 88.4 µM and above 100 µM, respectively.

On to `O/N=C1\C/C(=N\O)c2c(Br)sc(Br)c21`, for which the TGI is above 100 µM in [1]; above 100 µM in experiment [2]; above 100 µM in experiment [3]; 97.8 µM in [4]; 92.7 µM in experiment [5]; above 100 µM in experiment [6]. Besides, the total growth inhibition concentration (TGI) in experiment [8] is 96.5 µM; in experiment [9], above 100 µM.

`CCCCCCc1ccc(CCCCCCCC(=O)O)o1`: the total growth inhibition concentration (TGI) in experiment [2] was above 100 µM; in experiment [4], above 100 µM; in [5], 36.1 µM; in experiment [6] it was above 100 µM; in experiment [7], above 100 µM.

For orientation: GI50 means the concentration giving 50% growth inhibition. On to `CC1(C)CCC2=C(O1)c1ccccc1C(=Nc1ccc([N+](=O)[O-])cc1)C2=O`, for which the TGI was 33.6 µM in experiment [1]; 30.4 µM in [2]; above 100 µM in experiment [3]; above 100 µM in experiment [4]; above 100 µM in experiment [5]; above 100 µM in experiment [6]. Also, the concentration for total growth inhibition (TGI) in experiment [10] was 32.7 µM; in experiment [8] it was above 100 µM; in experiment [9] it was 32.6 µM. Further, the GI50 in experiment [2] is 16.8 µM.

`Cc1nc(N)c(N2CCN(S(=O)(=O)N(Cc3ccccc3)Cc3ccccc3)CC2)c(=O)[nH]1`: the concentration for total growth inhibition (TGI) in experiment [2] is 65.9 µM; in [3], above 100 µM; in [5], above 100 µM; in [6], above 100 µM; in [7], above 100 µM; in [8], 73.5 µM. Further, the TGI in experiment [9] was determined as 59 µM.

Turning to `CC(C)OC1=C(CC2(C)OCCO2)C(=O)C12OCCO2`, the TGI in experiment [1], in [2], in experiment [3], in experiment [4], in experiment [5] and in experiment [6] was above 100 µM in each case. For the same molecule, the TGI in [8] and in [9] was above 100 µM each time.

Consider `O=C1C(c2ccccc2)=C(c2ccccc2)C1(Cl)Cl`, for which the TGI in experiment [1] is 17.2 µM; in [2], 6.4 µM; in [3] it was 2.17 µM; in experiment [4], 15.3 µM; in experiment [5], 6.97 µM; in experiment [6], above 27 µM. Further, the concentration for total growth inhibition (TGI) in experiment [7] stood at 5.53 µM; in [8], 12.7 µM; in experiment [9] it was 2.81 µM.

As for `COC(=O)/C1=C/C=C\C[C@@]2(C)CC(c3ccoc3)OC(=O)[C@@H]2CC[C@H]1C` (some centres undefined), the TGI in experiment [1], in experiment [2], in [3], in [4], in experiment [5] and in experiment [6] was above 25 µM each time. In addition, the TGI in [10] and in experiment [9] was above 25 µM each time.

Turning to `NC1(c2cc3ccccc3s2)CCCCCC1`, the TGI was 35.2 µM in experiment [1]; 26.5 µM in experiment [2]; 31.5 µM in experiment [3]; 32.6 µM in [4]; 32.6 µM in experiment [5]; 33.7 µM in [6]. Moreover, the TGI is 25.4 µM in experiment [10] and 28.8 µM in experiment [9].

Turning to `COP(=O)(CP(=O)(OC)OCCC(C)CCC=C(C)C)OC` (centres undefined), the total growth inhibition concentration (TGI) in [1], in [2], in experiment [4], in experiment [5], in experiment [6] and in experiment [10] was above 100 µM in each case. The total growth inhibition concentration (TGI) in experiment [8] and in experiment [9] was above 100 µM in each case.

In the case of `CC(=O)/C=C(/C)[O-].CC(=O)/C=C(/C)[O-].CC(=O)[CH-]C(C)=O.CC(=O)[CH-]C(C)=O.[Zr+4]`, the GI50 in experiment [1] is above 100 µM; in experiment [3] it was 28.8 µM; in [5], above 100 µM; in [10] it was above 100 µM; in experiment [8], above 100 µM; in [9], above 100 µM. In addition, the TGI in experiment [1] is above 100 µM; in [3] it was 71.3 µM; in experiment [5] it was above 100 µM; in [10], above 100 µM; in experiment [8], above 100 µM; in experiment [9], above 100 µM.

`N#CC1=C(O)NC(O)=C(C#N)C1c1c(Cl)cccc1Cl`: the concentration for total growth inhibition (TGI) in experiment [1] was 64.5 µM; in [2], above 100 µM; in experiment [3], above 100 µM; in experiment [4] it was above 100 µM; in experiment [5], above 100 µM; in experiment [7], above 100 µM. Further, the figures for the concentration for total growth inhibition (TGI) in experiment [10], in experiment [8] and in experiment [9] were 28.7 µM, above 100 µM and above 100 µM, respectively.

As for `CCOc1ccc2c(c1)C(/C(C(Cl)=C(Cl)Cl)=[N+](/[O-])OC(=O)c1ccccc1)=N2`, the TGI in experiment [1], in experiment [2], in experiment [3], in experiment [5], in experiment [6] and in experiment [10] was above 100 µM in each case. Moreover, the TGI in [8] and in [9] was above 100 µM in each case.

With `COC1(OC)CC(CO)(COc2cc(Cl)nc(N)n2)C1`, the concentration for total growth inhibition (TGI) in experiment [2], in [4], in [5], in experiment [6], in [10] and in experiment [8] was above 100 µM each time. Also, the TGI in [9] was above 100 µM.

On to `O=C1C(Cl)N(c2ccc([N+](=O)[O-])cc2)C1c1c[nH]c2ccccc12` (centres undefined), for which the concentration for total growth inhibition (TGI) in experiment [2], in [3], in experiment [4], in [5], in experiment [7] and in experiment [10] was above 100 µM in each case. The TGI in experiment [8] and in experiment [9] was above 100 µM in each case.

As for `O=C1Sc2ccccc2C(=O)N2CCSC12` (centres undefined), the concentration for total growth inhibition (TGI) in experiment [1], in [2], in experiment [3], in experiment [5], in [7] and in experiment [10] was above 100 µM in each case. For the same molecule, the TGI in [9] was above 100 µM.

As to `COC(=O)/C=C1\C(CO[Si](C)(C)C(C)(C)C)OC(n2cc(C)c(=O)n(C)c2=O)C1O[Si](C)(C)C(C)(C)C` (centres undefined), the TGI in experiment [1], in experiment [2], in experiment [4], in experiment [5], in [6] and in [7] was above 100 µM each time. Moreover, the TGI in [8] and in experiment [9] was above 100 µM in each case.

With `O=[N+]([O-])c1c(O)c2nonc2c2nn(-c3ccccc3)nc12`, the TGI in experiment [2], in experiment [3], in [4], in experiment [5], in experiment [6] and in experiment [7] was above 100 µM in each case. The TGI in experiment [8] and in experiment [9] was above 100 µM throughout.

Consider `Cc1cnc2c(c1)C(=O)N(c1ccc(Oc3ccccc3)cc1)S2(=O)=O`, for which the TGI in experiment [2], in experiment [3], in experiment [4], in [5], in experiment [6] and in experiment [7] was above 100 µM in each case. The TGI in experiment [8] and in [9] was above 100 µM each time.

For the molecule `CCSC12OC3(CCCCCN3C1=O)C1C(=O)N(c3ccccc3)C(=O)C12` (centres undefined), the total growth inhibition concentration (TGI) in experiment [1], in experiment [2], in [3], in experiment [4], in [5] and in experiment [6] was above 100 µM each time. Moreover, the TGI in [10], in experiment [8] and in [9] was above 100 µM throughout.

For the molecule `COc1cc2nc(-c3cccs3)nc(N3CCN(c4ccccc4)CC3)c2cc1OC`, the TGI in [1], in experiment [2], in [3], in [4], in experiment [6] and in experiment [7] was above 100 µM in each case. Also, the total growth inhibition concentration (TGI) in experiment [8] and in [9] was above 100 µM in each case.
